{"source": "ChEMBL document CHEMBL1138897", "about": "“Function of the alkyl side chains of Deltalac-acetogenins in the inhibitory effect on mitochondrial complex I (NADH-ubiquinone oxidoreductase)” (Bioorg Med Chem Lett, 2006)"}
{"molecular_target": "Mitochondrial complex I; NADH oxidoreductase (Bos taurus, UniProt P25708+P52505)", "sequence (P25708 21-464 limits assumed, other chains not shown)": "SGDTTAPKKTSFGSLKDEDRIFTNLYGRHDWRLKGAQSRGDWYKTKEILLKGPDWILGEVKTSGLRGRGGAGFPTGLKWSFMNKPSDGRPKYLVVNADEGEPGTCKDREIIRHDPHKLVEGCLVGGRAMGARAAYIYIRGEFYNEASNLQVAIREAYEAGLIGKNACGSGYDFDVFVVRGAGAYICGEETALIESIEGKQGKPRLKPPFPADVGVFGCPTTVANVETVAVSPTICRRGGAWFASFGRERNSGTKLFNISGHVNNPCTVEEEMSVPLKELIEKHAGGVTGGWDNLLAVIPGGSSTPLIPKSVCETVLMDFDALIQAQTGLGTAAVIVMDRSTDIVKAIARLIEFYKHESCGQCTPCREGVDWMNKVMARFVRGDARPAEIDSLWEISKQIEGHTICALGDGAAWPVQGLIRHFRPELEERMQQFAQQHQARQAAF", "assay": "Inhibition of bovine mitochondrial NADH-ubiquinone oxidoreductase by NADH oxidase assay", "format": "protein-complex assay", "units": {"IC50": "nM"}}
{"smiles": "CCCCCCCCCC[C@@H](O)[C@H]1CC[C@H]([C@H]2CC[C@H]([C@H](O)CCCCCC)O2)O1", "IC50": 3.2}
{"smiles": "CCCCC(CC)CCC[C@@H](O)[C@H]1CC[C@H]([C@H]2CC[C@H]([C@H](O)CCCC(CC)CCCC)O2)O1", "note": "(some centres not stated)", "IC50": 870}
{"smiles": "CCCCCCCCCC[C@@H](O)[C@H]1CC[C@H]([C@H]2CC[C@H]([C@H](O)CCCCCCCCCC)O2)O1", "note": "[dleta-lac-Acetogenin]", "IC50": 1.7}
{"smiles": "CCCCCCCCCC[C@@H](O)[C@H]1CC[C@H]([C@H]2CC[C@H]([C@H](O)CCCC(CCC)CCC)O2)O1", "IC50": 27}
{"smiles": "CCCCCCCC[C@@H](O)[C@H]1CC[C@H]([C@H]2CC[C@H]([C@H](O)CCCCCCCC)O2)O1", "IC50": 45}
{"smiles": "CCCCCCCCCC[C@@H](O)[C@H]1CC[C@H]([C@H]2CC[C@H]([C@@H](C)O)O2)O1", "IC50": 280}
{"smiles": "CCCCCCCCCC[C@@H](O)[C@H]1CC[C@H]([C@H]2CC[C@H]([C@H](O)CC)O2)O1", "IC50": 45}
{"smiles": "CCCC(CCC)CCC[C@@H](O)[C@H]1CC[C@H]([C@H]2CC[C@H]([C@H](O)CCCC(CCC)CCC)O2)O1", "IC50": 1500}
{"smiles": "CCCCCCCCCCCC[C@@H](O)[C@H]1CC[C@H]([C@H]2CC[C@H]([C@H](O)CCCCCCCCCCCC)O2)O1", "IC50": 9}
{"smiles": "CCCCCCCCCCCCCC[C@@H](O)[C@H]1CC[C@H]([C@H]2CC[C@H]([C@H](O)CCCCCC)O2)O1", "IC50": 34}
{"smiles": "CCCCCCCCCCCC[C@@H](O)[C@H]1CC[C@H]([C@H]2CC[C@H]([C@H](O)CCCCCCCC)O2)O1", "IC50": 7.5}
{"smiles": "CCCCCCCCCCCCCC[C@@H](O)[C@H]1CC[C@H]([C@H]2CC[C@H]([C@@H](C)O)O2)O1", "IC50": 410}
